How the values were obtained:
[1] = biological target: Sodium-dependent serotonin transporter (Homo sapiens, UniProt P31645); test: Binding affinity at 5-HT reuptake site labeled with [3H]paroxetine
[2] = biological target: T1, 5-hydroxytryptamine receptor 1A (Homo sapiens) (UniProt P08908); test: Evaluated for stimulation at 1 uM concentration expressed as percent of the maximal [35S]GTP-gamma-S, binding induced by 5-hydroxytryptamine; format: functional
T1 sequence (whole entry): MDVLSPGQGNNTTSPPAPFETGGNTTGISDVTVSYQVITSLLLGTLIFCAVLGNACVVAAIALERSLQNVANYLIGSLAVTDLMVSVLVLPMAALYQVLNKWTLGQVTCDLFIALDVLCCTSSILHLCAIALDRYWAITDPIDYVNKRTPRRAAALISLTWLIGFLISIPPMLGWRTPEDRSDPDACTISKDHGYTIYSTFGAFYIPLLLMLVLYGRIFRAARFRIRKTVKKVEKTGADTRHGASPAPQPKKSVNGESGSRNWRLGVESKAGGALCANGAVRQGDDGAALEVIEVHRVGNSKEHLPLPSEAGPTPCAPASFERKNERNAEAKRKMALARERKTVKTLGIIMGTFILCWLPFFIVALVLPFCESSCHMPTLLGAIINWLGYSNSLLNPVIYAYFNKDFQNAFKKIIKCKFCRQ

[3] = biological target: T2, 5-hydroxytryptamine receptor 1A (Homo sapiens, UniProt P08908); test: Binding affinity was evaluated at 5-hydroxytryptamine 1A receptor labeled with [3H]-8-OH-DPAT
T2 sequence (P08908 whole entry): T1 sequence (whole entry)

Sequence of Sodium-dependent serotonin transporter (P31645 whole entry): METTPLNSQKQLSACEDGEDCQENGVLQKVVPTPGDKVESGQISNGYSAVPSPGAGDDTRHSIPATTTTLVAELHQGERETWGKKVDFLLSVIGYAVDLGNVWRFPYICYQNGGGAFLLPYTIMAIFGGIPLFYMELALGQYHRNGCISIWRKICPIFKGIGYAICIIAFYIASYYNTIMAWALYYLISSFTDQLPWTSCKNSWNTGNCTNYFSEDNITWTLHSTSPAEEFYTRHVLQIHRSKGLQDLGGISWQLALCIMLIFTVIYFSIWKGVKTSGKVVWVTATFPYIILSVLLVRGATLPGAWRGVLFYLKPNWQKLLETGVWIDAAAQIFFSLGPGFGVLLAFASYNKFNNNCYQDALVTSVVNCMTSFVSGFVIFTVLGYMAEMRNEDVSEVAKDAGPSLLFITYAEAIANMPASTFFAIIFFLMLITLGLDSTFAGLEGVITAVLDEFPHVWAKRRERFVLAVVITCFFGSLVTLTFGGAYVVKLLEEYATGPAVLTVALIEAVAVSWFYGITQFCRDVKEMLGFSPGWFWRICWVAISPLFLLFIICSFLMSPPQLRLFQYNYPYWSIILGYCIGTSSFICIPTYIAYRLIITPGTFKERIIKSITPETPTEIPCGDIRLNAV

Cc1cc2c(OC[C@H](O)CN3CC[C@@H](c4cccc5sccc45)C[C@@H]3C)cccc2[nH]1
Ki [1]: 4.35 nM | Emax [2]: 15% | Ki [3]: 1.82 nM

O[C@@H](COc1cccc2[nH]ccc12)CN1CCC(c2cc3ccccc3s2)CC1
Ki [1]: 16.7 nM | Emax [2]: 12% | Ki [3]: 3.7 nM

COc1cccc2ccc([C@@H]3CCN(C[C@H](O)COc4cccc5[nH]c(C)cc45)[C@@H](C)C3)cc12
Ki [1]: 0.34 nM | Emax [2]: 11% | Ki [3]: 10.9 nM

Cc1cc2c(OC[C@@H](O)CN3CC[C@@H](c4ccc5ccoc5c4)C[C@@H]3C)cccc2[nH]1
Ki [1]: 3.77 nM | Emax [2]: 6% | Ki [3]: 1.05 nM

Cc1cc2c(OC[C@H](O)CN3CC[C@@H](c4ccc5sccc5c4)C[C@@H]3C)cccc2[nH]1
Ki [1]: 0.3 nM | Emax [2]: 12% | Ki [3]: 1.43 nM

Cc1cc2c(OC[C@H](O)CN3CC[C@@H](c4ccc5occc5c4)C[C@@H]3C)cccc2[nH]1
Ki [1]: 1.69 nM | Emax [2]: 9% | Ki [3]: 1.39 nM

O[C@@H](COc1cccc2[nH]ccc12)CN1CCC(c2csc3ccccc23)CC1
Ki [3]: 1.84 nM

Cc1cc2c(OC[C@@H](O)CN3CC[C@@H](c4ccc5c(C)csc5c4)C[C@@H]3C)cccc2[nH]1
Ki [1]: 0.58 nM | Emax [2]: 4% | Ki [3]: 7.82 nM

COc1cccc2sc([C@@H]3CCN(C[C@H](O)COc4cccc5[nH]c(C)cc45)[C@@H](C)C3)cc12
Ki [1]: 0.86 nM | Emax [2]: 3%

Cc1cc2c(OC[C@@H](O)CN3CC[C@@H](c4ccc5ccccc5c4)C[C@@H]3C)cccc2[nH]1
Ki [1]: 0.4 nM | Emax [2]: 9% | Ki [3]: 5.11 nM

Cc1cc2c(OC[C@@H](O)CN3CC[C@@H](c4cc5ccccc5s4)C[C@@H]3C)cccc2[nH]1
Ki [1]: 0.53 nM

Cc1cc2c(OC[C@@H](O)CN3CC[C@@H](c4ccc5ccsc5c4)C[C@@H]3C)cccc2[nH]1
Ki [1]: 0.75 nM | Emax [2]: 12% | Ki [3]: 4.45 nM

Cc1cc2c(OC[C@@H](O)CN3CC[C@@H](c4cccc5occc45)C[C@@H]3C)cccc2[nH]1
Ki [1]: 7.18 nM | Emax [2]: 8% | Ki [3]: 1.23 nM

Cc1cc2c(OC[C@@H](O)CN3CC[C@@H](c4ccc5scc(C)c5c4)C[C@@H]3C)cccc2[nH]1
Ki [1]: 0.54 nM | Emax [2]: 8% | Ki [3]: 3.12 nM

Cc1cc2c(OC[C@@H](O)CN3CC[C@@H](c4cccc5ccsc45)C[C@@H]3C)cccc2[nH]1
Ki [1]: 9.24 nM | Emax [2]: 8% | Ki [3]: 0.91 nM
